Results as given in PubChem BioAssay AID248 (DTP/NCI, 2004).
Inconclusive results and toxic doses are left out. Cut-off read from the data, not from the text of the source: active = T/C of 150% or more; inactive = T/C below 125%.

System: L1210 leukemia ip in BDF1 mice, survival T/C
Assay: NCI In Vivo Anticancer Drug Screen. Data for tumor model L1210 Leukemia (intraperitoneal) in B6D2F1 (BDF1) mice
Conditions: endpoint: mean survival time, higher = longer survival
In short: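 In this screen, tumor-bearing mice given compound are compared to those given vehicle, and their survival values are reported as a treated-to-control quotient.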

[1] = dose: 100.0 mg/kg/injection, schedule: Q01DX001 (ip), vehicle: carboxymethylcellulose (CMC)
[2] = dose: 200.0 mg/kg/injection, schedule: Q01DX001 (ip), vehicle: carboxymethylcellulose (CMC)
[3] = dose: 100.0 mg/kg/injection, schedule: Q01DX009 (ip), vehicle: saline with Tween-80
[4] = dose: 100.0 mg/kg/injection, schedule: Q04DX003 (ip), vehicle: saline with Tween-80
[5] = dose: 200.0 mg/kg/injection, schedule: Q01DX009 (ip), vehicle: saline with Tween-80
[6] = dose: 200.0 mg/kg/injection, schedule: Q04DX003 (ip), vehicle: saline with Tween-80
[7] = dose: 400.0 mg/kg/injection, schedule: Q01DX009 (ip), vehicle: saline with Tween-80
[8] = dose: 400.0 mg/kg/injection, schedule: Q04DX003 (ip), vehicle: saline with Tween-80
[9] = dose: 100.0 mg/kg/injection, schedule: Q01DX009 (ip), vehicle: Klucel (hydroxypropylcellulose) (HPC)
[10] = dose: 200.0 mg/kg/injection, schedule: Q01DX009 (ip), vehicle: Klucel (hydroxypropylcellulose) (HPC)
[11] = dose: 400.0 mg/kg/injection, schedule: Q01DX009 (ip), vehicle: Klucel (hydroxypropylcellulose) (HPC)
[12] = dose: 100.0 mg/kg/injection, schedule: Q04DX003 (ip), vehicle: Klucel (hydroxypropylcellulose) (HPC)
[13] = dose: 200.0 mg/kg/injection, schedule: Q04DX003 (ip), vehicle: Klucel (hydroxypropylcellulose) (HPC)
[14] = dose: 400.0 mg/kg/injection, schedule: Q04DX003 (ip), vehicle: Klucel (hydroxypropylcellulose) (HPC)

Measured: T/C

O=C(Oc1c(Cl)cc(Cl)cc1C=Nc1cccc(C(F)(F)F)c1)c1ccccc1
inactive: dose: 100.0 mg/kg/injection, schedule: Q01DX009 (ip), vehicle: other 101 % of control | dose: 200.0 mg/kg/injection, schedule: Q01DX009 (ip), vehicle: other 101 % of control | dose: 400.0 mg/kg/injection, schedule: Q01DX009 (ip), vehicle: other 101 % of control

O=c1[nH]cc(S)c(=O)[nH]1
inactive: [1] 96 % of control | dose: 100.0 mg/kg/injection, schedule: Q01DX015 (ip), vehicle: carboxymethylcellulose (CMC) 102 % of control | [2] 100 % of control

NC1CCC(c2ccccc2)(c2ccccc2)C1=O (centres undefined)
inactive: dose: 75.0 mg/kg/injection, schedule: Q01DX001 (ip), vehicle: saline 100 % of control | dose: 150.0 mg/kg/injection, schedule: Q01DX001 (ip), vehicle: saline 102 % of control

CCOC(=O)C1=NN(c2ccccc2)C(=O)C1N=Nc1ccc(NS(=O)(=O)c2nccs2)cc1 (centres undefined)
inactive: dose: 100.0 mg/kg/injection, schedule: Q01DX001 (ip), vehicle: saline 102 % of control | dose: 200.0 mg/kg/injection, schedule: Q01DX001 (ip), vehicle: saline 105 % of control | dose: 400.0 mg/kg/injection, schedule: Q01DX001 (ip), vehicle: saline 96 % of control

O=C(O)c1ccccc1/C=C/c1ccccc1
inactive: [3] 96 % of control | [4] 104 % of control | [5] 100 % of control | [6] 101 % of control | [7] 96 % of control | [8] 101 % of control

Cc1cc(C)c(C(=O)C(=S)N2CCOCC2)c(C)c1
inactive: dose: 200.0 mg/kg/injection, schedule: Q01DX009 (ip), vehicle: acetone 90 % of control | dose: 400.0 mg/kg/injection, schedule: Q01DX009 (ip), vehicle: acetone 96 % of control

COC(=O)c1ccc(C(=O)O)cc1[N+](=O)[O-]
inactive: [9] 102 % of control | [10] 102 % of control | [11] 90 % of control

CCCCN(CCCC)CC(O)c1cc(OC)c2cc(Cl)cc(Cl)c2n1 (centres undefined)
inactive: [4] 98 % of control | [6] 91 % of control | [8] 94 % of control

NC(N)=N/N=C\c1ccc2c(c1)OCO2
inactive: dose: 15.0 mg/kg/injection, schedule: Q01DX Z (ip), vehicle: saline 98 % of control | dose: 30.0 mg/kg/injection, schedule: Q01DX Z (ip), vehicle: saline 88 % of control | dose: 30.0 mg/kg/injection, schedule: Q01DX Z (oral), vehicle: saline 92 % of control | dose: 60.0 mg/kg/injection, schedule: Q01DX Z (ip), vehicle: saline 92 % of control | dose: 60.0 mg/kg/injection, schedule: Q01DX Z (oral), vehicle: saline 94 % of control | dose: 120.0 mg/kg/injection, schedule: Q01DX Z (oral), vehicle: saline 97 % of control

CCOc1ccccc1NC(=O)c1ccccc1Cl
inactive: [9] 102 % of control | [10] 108 % of control | [11] 93 % of control

CN(C)Cc1ccccc1COC(=O)c1ccc(Cl)cc1
inactive: dose: 75.0 mg/kg/injection, schedule: Q04DX002 (ip), vehicle: saline 102 % of control | dose: 150.0 mg/kg/injection, schedule: Q04DX002 (ip), vehicle: saline 94 % of control | dose: 300.0 mg/kg/injection, schedule: Q04DX002 (ip), vehicle: saline 96 % of control

OCc1ccc(CO)cc1
inactive: dose: 100.0 mg/kg/injection, schedule: Q01DX009 (ip), vehicle: saline sonified 100 % of control | dose: 200.0 mg/kg/injection, schedule: Q01DX009 (ip), vehicle: saline sonified 94 % of control | dose: 400.0 mg/kg/injection, schedule: Q01DX009 (ip), vehicle: saline sonified 103 % of control

O=C1NC(=O)C(O)(C2(O)C(=O)NC(=O)NC2=O)C(=O)N1
inactive: dose: 75.0 mg/kg/injection, schedule: Q01DX001 (ip), vehicle: carboxymethylcellulose (CMC) 101 % of control | [3] 106 % of control | dose: 150.0 mg/kg/injection, schedule: Q01DX001 (ip), vehicle: carboxymethylcellulose (CMC) 102 % of control | [5] 92 % of control | [7] 88 % of control

Oc1ccc(Cl)c2cccnc12
inactive: dose: 4.0 mg/kg/injection, schedule: Q01DX015 (ip), vehicle: carboxymethylcellulose (CMC) 103 % of control | dose: 8.0 mg/kg/injection, schedule: Q01DX015 (ip), vehicle: carboxymethylcellulose (CMC) 106 % of control | dose: 16.0 mg/kg/injection, schedule: Q01DX015 (ip), vehicle: carboxymethylcellulose (CMC) 103 % of control | dose: 32.0 mg/kg/injection, schedule: Q01DX015 (ip), vehicle: carboxymethylcellulose (CMC) 95 % of control | dose: 64.0 mg/kg/injection, schedule: Q01DX015 (ip), vehicle: carboxymethylcellulose (CMC) 102 % of control | [1] 90 % of control | dose: 128.0 mg/kg/injection, schedule: Q01DX015 (ip), vehicle: carboxymethylcellulose (CMC) 100 % of control | [2] 103 % of control

CCNCCC#N
inactive: dose: 100.0 mg/kg/injection, schedule: Q01DX009 (ip), vehicle: saline 111 % of control | [12] 108 % of control | dose: 200.0 mg/kg/injection, schedule: Q01DX009 (ip), vehicle: saline 107 % of control | [13] 107 % of control | [14] 111 % of control

O=C(CCl)Nc1ccc([N+](=O)[O-])cc1
inactive: dose: 25.0 mg/kg/injection, schedule: Q04DX002 (ip), vehicle: saline with Tween-80 103 % of control | dose: 50.0 mg/kg/injection, schedule: Q04DX002 (ip), vehicle: saline with Tween-80 93 % of control | dose: 100.0 mg/kg/injection, schedule: Q04DX002 (ip), vehicle: saline with Tween-80 97 % of control

CCOC(=O)c1ccc(N=CN(C)C)cc1
inactive: [12] 100 % of control | [13] 95 % of control | [14] 107 % of control

CC(C)(C)C1CCC2(CC1)CCN(N1CCCCCC1)CC2
inactive: dose: 50.0 mg/kg/injection, schedule: Q01DX001 (ip), vehicle: carboxymethylcellulose (CMC) 101 % of control | [1] 111 % of control | [2] 95 % of control | dose: 400.0 mg/kg/injection, schedule: Q01DX001 (ip), vehicle: carboxymethylcellulose (CMC) 103 % of control

CCCCC(=O)c1ccc(OC)cc1
inactive: [9] 100 % of control | [12] 96 % of control | [10] 105 % of control | [13] 102 % of control | [11] 102 % of control | [14] 93 % of control
